Activity calls are given as the source filed them.
What was measured:
[1] = target: T1, RNA-binding protein pos-1 (Caenorhabditis elegans, UniProt G5EF15); assay: disruptors of C. elegans POS-1 RNA interaction – biochemical, fluorescence polarization, dose response (AID 1964);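 further: purified POS-1 fused to maltose binding protein made in E. coli; potency of compounds blocking POS-1 binding to fluorescent RNA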
T1 sequence (G5EF15 whole entry): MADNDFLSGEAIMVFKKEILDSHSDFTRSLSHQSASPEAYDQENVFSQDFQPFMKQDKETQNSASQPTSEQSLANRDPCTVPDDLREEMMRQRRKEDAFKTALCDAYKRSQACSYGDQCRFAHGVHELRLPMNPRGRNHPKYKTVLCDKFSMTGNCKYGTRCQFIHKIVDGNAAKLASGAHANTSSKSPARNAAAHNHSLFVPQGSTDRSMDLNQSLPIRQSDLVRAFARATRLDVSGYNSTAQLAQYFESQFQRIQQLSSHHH

[2] = target: T2, Zinc finger protein mex-5 (Caenorhabditis elegans, UniProt Q9XUB2); assay: potency of MEX-5 RNA-binding blockers – biochemical, C. elegans, fluorescence polarization, dose response (AID 1960)
T2 sequence (Q9XUB2 whole entry): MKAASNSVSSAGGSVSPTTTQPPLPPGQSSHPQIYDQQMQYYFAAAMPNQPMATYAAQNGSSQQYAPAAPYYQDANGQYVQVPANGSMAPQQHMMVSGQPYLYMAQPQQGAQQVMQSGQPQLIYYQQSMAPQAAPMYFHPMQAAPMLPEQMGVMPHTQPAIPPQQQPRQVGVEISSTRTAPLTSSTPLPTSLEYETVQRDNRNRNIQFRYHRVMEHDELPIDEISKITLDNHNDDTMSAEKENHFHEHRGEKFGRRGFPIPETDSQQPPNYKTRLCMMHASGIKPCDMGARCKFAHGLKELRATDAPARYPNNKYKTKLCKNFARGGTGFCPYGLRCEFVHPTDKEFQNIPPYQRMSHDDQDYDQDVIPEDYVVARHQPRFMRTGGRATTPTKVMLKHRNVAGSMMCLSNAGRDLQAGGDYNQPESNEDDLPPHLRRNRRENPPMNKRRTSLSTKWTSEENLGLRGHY

[3] = target: T3, Intestinal-type alkaline phosphatase (Mus musculus, UniProt P24822); assay: PubChem AID 488874; format: functional
T3 sequence (P24822 whole entry): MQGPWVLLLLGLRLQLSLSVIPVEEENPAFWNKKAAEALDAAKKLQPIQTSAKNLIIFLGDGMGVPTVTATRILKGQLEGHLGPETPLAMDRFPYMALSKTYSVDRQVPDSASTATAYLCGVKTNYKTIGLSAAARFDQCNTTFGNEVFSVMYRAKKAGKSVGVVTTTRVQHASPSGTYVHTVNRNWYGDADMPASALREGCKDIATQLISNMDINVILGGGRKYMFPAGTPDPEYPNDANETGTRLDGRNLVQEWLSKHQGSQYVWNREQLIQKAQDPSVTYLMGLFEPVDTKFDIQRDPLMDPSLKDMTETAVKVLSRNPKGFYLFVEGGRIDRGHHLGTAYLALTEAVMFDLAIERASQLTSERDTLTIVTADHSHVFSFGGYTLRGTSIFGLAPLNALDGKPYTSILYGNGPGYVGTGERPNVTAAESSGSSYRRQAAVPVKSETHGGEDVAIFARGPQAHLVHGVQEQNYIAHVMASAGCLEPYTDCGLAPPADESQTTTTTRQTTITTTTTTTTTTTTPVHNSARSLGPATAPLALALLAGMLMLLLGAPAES

[4] = target: T3, Intestinal-type alkaline phosphatase; assay: PubChem AID 488875; format: functional
[5] = target: T4, Intestinal-type alkaline phosphatase (Homo sapiens, UniProt P09923); assay: human intestinal alkaline phosphatase activators, dose response, biochemical, luminescence, uHTS hits (AID 463120); format: functional
T4 sequence (P09923 whole entry): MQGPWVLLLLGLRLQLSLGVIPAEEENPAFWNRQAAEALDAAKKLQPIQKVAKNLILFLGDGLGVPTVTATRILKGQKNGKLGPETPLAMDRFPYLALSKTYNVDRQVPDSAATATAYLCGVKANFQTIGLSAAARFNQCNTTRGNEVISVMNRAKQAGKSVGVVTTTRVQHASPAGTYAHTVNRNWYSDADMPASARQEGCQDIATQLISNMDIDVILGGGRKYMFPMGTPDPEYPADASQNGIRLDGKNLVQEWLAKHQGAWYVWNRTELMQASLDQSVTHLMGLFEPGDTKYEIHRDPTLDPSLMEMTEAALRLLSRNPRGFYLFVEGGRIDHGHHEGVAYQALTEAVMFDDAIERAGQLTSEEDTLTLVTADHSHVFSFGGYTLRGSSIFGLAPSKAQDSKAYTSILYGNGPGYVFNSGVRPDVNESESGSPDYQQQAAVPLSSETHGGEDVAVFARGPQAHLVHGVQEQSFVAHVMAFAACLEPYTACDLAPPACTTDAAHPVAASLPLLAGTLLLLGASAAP

[6] = target: T4, Intestinal-type alkaline phosphatase; assay: activation of human intestinal alkaline phosphatase – biochemical, luminescent, uHTS hits, set 2, dose response (AID 488817); format: functional;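 further: potency of activators that raise enzyme activity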
[7] = target: T5, Alkaline phosphatase, tissue-nonspecific isozyme (Homo sapiens, UniProt P05186); assay: activation of tissue-nonspecific alkaline phosphatase – biochemical, TNAP isozyme, human IAP uHTS hits, selectivity assay for human IAP activator project, dose response (AID 488886); format: functional;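 further: potency of compounds raising TNAP activity as a selectivity check on IAP activators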
T5 sequence (P05186 whole entry): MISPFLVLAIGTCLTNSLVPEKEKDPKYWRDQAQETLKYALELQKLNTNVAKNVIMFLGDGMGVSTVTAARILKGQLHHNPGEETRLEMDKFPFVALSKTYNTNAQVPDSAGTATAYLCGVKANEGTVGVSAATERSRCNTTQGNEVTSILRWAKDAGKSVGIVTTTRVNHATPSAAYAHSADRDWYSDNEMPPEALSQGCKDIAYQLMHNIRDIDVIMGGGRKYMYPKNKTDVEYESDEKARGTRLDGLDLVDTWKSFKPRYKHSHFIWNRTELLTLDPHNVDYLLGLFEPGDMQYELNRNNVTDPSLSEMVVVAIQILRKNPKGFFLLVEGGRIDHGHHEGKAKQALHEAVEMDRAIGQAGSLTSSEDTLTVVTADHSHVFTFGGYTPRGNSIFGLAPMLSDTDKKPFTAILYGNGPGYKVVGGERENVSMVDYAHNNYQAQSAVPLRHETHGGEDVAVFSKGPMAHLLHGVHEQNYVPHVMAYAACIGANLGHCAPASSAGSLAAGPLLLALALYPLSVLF

[8] = target: T6, Eukaryotic translation initiation factor 4H (Homo sapiens, UniProt Q15056); assay: eIF4H binding inhibition – biochemical, uHTS, fluorescence polarization, translation initiation inhibitor project, primary screen (AID 2012)
[9] = target: T7, Polyadenylate-binding protein 1 (Homo sapiens, UniProt P11940); assay: blockers of PABP interaction with poly(A) – biochemical, fluorescence polarization, […] (AID 2014)
T7 sequence (P11940 whole entry): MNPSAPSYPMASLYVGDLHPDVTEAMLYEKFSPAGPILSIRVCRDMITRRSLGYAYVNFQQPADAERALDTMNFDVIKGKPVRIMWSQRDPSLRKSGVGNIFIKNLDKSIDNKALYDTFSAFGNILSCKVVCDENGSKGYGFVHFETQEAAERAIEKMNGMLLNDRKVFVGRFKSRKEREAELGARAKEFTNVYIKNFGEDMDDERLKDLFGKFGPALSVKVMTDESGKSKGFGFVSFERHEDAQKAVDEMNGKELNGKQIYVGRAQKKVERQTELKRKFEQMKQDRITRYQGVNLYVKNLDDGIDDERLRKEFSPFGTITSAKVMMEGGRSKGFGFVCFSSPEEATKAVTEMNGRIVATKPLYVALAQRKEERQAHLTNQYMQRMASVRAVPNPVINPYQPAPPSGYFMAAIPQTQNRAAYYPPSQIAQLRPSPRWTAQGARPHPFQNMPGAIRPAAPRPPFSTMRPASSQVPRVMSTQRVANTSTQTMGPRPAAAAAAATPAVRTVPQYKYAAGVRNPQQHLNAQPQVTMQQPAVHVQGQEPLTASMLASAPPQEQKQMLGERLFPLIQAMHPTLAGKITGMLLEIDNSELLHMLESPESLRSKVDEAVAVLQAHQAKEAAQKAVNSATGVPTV

[10] = target: T6, Eukaryotic translation initiation factor 4H; assay: inhibitors of translation initiation factor eIF4H – SAR follow-up (AID 435011); format: functional
[11] = target: T7, Polyadenylate-binding protein 1; assay: PABP inhibition in translation initiation, SAR follow-up (AID 435018); format: functional
[12] = target: Envelope glycoprotein gp160 (Human immunodeficiency virus 1, UniProt Q6QLK5); assay: cell-free HIV fusion peptide-binding blockers – biochemical, uHTS, fluorescence dequenching, […] (AID 1986)
Envelope glycoprotein gp160, sequence (Q6QLK5 whole entry, the tested form may be a part): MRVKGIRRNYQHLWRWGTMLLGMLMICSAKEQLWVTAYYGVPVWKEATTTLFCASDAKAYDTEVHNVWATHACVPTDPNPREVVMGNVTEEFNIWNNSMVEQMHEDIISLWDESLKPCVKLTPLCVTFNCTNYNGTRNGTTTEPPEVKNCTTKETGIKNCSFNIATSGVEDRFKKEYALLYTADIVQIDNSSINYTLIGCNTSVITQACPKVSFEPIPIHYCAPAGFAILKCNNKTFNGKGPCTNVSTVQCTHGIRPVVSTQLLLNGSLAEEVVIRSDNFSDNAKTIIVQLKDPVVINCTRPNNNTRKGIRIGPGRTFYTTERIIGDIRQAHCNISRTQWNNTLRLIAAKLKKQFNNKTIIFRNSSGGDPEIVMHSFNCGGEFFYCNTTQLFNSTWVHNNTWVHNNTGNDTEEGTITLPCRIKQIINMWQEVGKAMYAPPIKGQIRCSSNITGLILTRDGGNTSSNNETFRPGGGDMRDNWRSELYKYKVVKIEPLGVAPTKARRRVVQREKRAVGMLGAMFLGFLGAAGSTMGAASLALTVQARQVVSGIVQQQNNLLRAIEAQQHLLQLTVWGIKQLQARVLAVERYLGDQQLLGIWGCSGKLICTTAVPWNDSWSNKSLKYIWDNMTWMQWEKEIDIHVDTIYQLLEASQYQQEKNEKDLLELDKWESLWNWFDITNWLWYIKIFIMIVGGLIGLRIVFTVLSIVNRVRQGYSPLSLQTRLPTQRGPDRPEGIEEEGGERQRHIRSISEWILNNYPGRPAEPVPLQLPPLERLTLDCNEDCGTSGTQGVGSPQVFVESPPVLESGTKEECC

Aminopeptidase N = target: T8, Aminopeptidase N (Plasmodium falciparum FcB1/Columbia, UniProt O96935); assay: malaria alanyl aminopeptidase activity blockers – biochemical, fluorogenic H-Leu-NHMec substrate, 1536-well (AID 1445); set-up: species or system Plasmodium falciparum 3D7, 3D7
T8 sequence (O96935 whole entry): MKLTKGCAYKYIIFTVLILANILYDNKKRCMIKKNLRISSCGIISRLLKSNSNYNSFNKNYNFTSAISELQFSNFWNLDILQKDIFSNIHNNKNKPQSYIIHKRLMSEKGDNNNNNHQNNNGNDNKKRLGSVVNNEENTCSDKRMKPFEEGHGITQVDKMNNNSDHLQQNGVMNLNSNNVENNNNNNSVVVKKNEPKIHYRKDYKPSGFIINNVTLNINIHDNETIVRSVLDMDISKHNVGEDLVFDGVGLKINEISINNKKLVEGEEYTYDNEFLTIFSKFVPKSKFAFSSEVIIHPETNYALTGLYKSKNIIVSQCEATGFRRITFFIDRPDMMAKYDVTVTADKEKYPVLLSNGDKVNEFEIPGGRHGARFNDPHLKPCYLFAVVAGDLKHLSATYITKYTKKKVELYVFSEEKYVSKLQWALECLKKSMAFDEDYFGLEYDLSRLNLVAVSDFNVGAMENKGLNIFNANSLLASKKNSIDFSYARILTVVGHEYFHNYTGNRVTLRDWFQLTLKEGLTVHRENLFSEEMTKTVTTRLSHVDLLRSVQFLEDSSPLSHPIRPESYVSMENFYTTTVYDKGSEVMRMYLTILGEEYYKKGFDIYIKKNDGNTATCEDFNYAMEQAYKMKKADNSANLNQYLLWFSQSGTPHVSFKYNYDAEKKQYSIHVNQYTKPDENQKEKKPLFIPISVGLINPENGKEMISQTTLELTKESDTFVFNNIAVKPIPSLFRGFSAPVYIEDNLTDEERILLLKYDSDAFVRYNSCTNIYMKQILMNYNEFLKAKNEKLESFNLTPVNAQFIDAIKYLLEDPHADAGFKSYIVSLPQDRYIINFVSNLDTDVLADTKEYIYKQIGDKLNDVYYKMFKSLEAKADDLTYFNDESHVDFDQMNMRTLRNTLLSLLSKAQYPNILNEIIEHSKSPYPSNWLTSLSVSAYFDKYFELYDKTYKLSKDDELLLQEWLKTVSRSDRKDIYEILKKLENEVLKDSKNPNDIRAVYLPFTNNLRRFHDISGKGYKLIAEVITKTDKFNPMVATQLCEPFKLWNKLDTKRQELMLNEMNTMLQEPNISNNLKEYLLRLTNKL

[13] = HPDE-C7 pancreatic duct cell viability loss – fluorescence, HTS (AID 430); format: functional, cell-based; conditions: Homo sapiens
[14] = viability loss of HPDE-C7K cells – cell-based, fluorescence, HTS, primary screen (AID 431); format: functional; conditions: Homo sapiens
Estrogen receptor beta [15] = target: T9, Estrogen receptor beta (Homo sapiens, UniProt Q92731);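 further: recombinant ER-beta bound to coactivator SRC1 peptide in presence of estradiol agonist; inhibitors block coactivator peptide binding and lower the FRET signal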
T9 sequence (Q92731 whole entry): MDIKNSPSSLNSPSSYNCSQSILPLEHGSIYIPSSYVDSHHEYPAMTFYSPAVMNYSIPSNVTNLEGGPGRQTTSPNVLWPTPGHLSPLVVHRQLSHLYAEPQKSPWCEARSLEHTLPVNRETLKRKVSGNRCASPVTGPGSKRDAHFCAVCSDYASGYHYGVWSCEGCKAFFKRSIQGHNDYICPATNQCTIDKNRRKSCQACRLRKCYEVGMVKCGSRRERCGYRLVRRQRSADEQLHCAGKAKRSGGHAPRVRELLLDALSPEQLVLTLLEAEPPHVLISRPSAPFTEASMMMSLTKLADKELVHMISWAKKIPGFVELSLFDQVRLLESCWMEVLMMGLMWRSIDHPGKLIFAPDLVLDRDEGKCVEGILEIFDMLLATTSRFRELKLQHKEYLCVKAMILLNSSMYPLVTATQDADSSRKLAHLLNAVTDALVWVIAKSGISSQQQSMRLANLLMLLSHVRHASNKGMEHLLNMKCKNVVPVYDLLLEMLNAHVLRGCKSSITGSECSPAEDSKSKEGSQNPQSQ

Estrogen receptor beta [16] = target: T9, Estrogen receptor beta; assay: blockers of SRC-3 recruitment to ERβ – biochemical, ELISA, streptavidin-HRP readout, orthogonal assay, confirmation (AID 1060)
[17] = target: T10, Calpain-2 catalytic subunit (Sus scrofa, UniProt P43367); assay: m-calpain protease blockers, concentration series – biochemical, fluorogenic peptide substrate, dose response (AID 1420); format: functional
T10 sequence (P43367 whole entry): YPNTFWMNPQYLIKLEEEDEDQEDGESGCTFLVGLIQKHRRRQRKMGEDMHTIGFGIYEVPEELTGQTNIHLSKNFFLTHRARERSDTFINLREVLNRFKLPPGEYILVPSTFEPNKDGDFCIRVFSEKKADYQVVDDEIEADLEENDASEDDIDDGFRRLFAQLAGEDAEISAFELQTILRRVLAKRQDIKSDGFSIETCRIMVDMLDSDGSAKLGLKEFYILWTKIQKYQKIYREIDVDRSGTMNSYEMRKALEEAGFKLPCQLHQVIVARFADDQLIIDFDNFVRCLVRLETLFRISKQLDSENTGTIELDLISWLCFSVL

[18] = target: Induced myeloid leukemia cell differentiation protein Mcl-1 (Homo sapiens, UniProt Q07820); format: functional
Induced myeloid leukemia cell differentiation protein Mcl-1, sequence (Q07820 whole entry): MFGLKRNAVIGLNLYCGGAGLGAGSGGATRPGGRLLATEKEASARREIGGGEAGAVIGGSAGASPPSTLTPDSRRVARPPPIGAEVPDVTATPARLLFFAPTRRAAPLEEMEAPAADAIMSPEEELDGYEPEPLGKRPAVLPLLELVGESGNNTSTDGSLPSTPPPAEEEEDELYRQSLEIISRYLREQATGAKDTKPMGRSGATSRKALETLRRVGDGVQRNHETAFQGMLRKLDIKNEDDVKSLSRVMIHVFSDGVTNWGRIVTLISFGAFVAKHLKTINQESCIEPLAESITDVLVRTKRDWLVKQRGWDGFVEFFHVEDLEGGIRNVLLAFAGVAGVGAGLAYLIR

Large T antigen = Large T antigen (Simian virus 40, UniProt P03070); assay: A confirmatory biochemical assay using the ADP-Hunter methodology, purified TAg, and ATP to quantify activity of synthesized compounds that inhibit the ATPase activity of Tag (3). [Related pubchem assays (depositor defined):AID1903, AID1909, AID2102, AID2501, AID2615, AID2775, AID435001, AID449729]; set-up: species or system Betapolyomavirus macacae
Large T antigen, sequence (P03070 whole entry): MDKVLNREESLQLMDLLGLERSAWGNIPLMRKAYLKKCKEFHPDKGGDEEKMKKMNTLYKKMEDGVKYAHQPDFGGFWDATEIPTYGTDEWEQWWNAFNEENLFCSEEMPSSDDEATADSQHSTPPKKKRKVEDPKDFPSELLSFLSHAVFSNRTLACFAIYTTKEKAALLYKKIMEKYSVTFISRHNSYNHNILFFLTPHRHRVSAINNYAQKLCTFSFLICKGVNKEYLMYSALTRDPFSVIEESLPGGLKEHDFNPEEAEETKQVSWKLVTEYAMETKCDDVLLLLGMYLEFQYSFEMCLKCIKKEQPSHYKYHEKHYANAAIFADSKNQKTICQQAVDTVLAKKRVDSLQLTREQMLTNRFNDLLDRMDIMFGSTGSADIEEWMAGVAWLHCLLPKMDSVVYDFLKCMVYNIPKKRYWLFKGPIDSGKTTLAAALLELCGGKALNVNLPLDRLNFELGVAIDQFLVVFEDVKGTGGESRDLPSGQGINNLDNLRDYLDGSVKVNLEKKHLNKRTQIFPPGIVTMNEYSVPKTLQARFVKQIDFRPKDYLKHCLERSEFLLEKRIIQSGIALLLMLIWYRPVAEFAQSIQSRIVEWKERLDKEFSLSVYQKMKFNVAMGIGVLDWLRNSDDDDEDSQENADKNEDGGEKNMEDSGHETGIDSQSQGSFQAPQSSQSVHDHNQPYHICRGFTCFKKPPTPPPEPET

[19] = rise of 2N DNA cells, HeLa – IC50, dose response (AID 1117349); format: functional, cell-based
[20] = CellTiter-Glo luminescence survival assay, SW480 colon tumor line, concentration-response curve, half-maximal inhibitory concentration (AID 1117338); format: functional
[21] = RKO cell viability reduction, dose response, CellTiter-Glo luminescence (AID 1117322); format: functional
[22] = cytotoxicity toward HCT116 cells – cell-based, CellTiter-Glo luminescence, IC50, dose response (AID 1117332); format: functional; conditions: HCT-116
[23] = SNU-C1 cell viability reduction, dose response, CellTiter-Glo luminescence (AID 1117323); format: functional, cell-based
[24] = glucagon-like peptide-1 release potency in STC-1, concentration-response, half-maximal inhibitory concentration in the STC-1 line (AID 1117345); format: functional, cell-based
[25] = cytotoxicity toward Colo320 cells – cell-based, CellTiter-Glo luminescence, IC50, dose response (AID 1117334); format: functional; conditions: COLO 320
[26] = rise of 4N DNA cells, HeLa – IC50, dose response (AID 1117351); format: functional, cell-based
[27] = cytotoxicity toward HT-29 cells – cell-based, CellTiter-Glo luminescence, IC50, dose response (AID 1117330); format: functional
[28] = Reduced DLD-1 viability, concentration-response, CellTiter-Glo luminescence (AID 1117352); format: functional
[29] = HCT116 cell viability decrease, GSK3B pretreatment – CellTiter-Glo, IC50, dose response (AID 1117339); format: functional; conditions: HCT-116
[30] = Potency on glucagon-like peptide 1 release, dose-response in NCI-H716 cell line, half maximal inhibitory concentration (AID 1117344); format: functional, cell-based

Question: With `O=C(NNC(=S)NC(=O)c1ccccc1[N+](=O)[O-])c1ccccc1O` as the compound, how does the EC50 [1] read?
Answer: 134 µM (active)

Question: What about the EC50 [2] of the same compound?
Answer: 32.2 µM (active)

Question: What about the IC50 [3] of the same compound?
Answer: > 100 µM (inactive)

Question: And the EC50 [4]?
Answer: > 100 µM (inactive)

Question: And the EC50 [5]?
Answer: 9.16 µM (active)

Question: What about the EC50 [6] of the same compound?
Answer: 9.62 µM (active)

Question: And the EC50 [7]?
Answer: 11.2 µM (active)

Question: What does the source list for `Cc1ccc(OC(C)C(=O)Nc2ccc3c(c2)n(C)c(=O)n3C)c(C)c1` (configuration not stated)?
Answer: IC50 [8]: > 100 µM (inactive); IC50 [9]: 16.2 µM (active); IC50 [10]: 35 µM (active); IC50 [11]: 4.39 µM (active)

Question: With `Oc1c(Cl)cc(Cl)cc1Sc1cc(Cl)cc(Cl)c1O` [BITHIONOL] as the compound, how does the IC50 [12] read?
Answer: 6.16 µM (active)

Question: And the IC50 (Aminopeptidase N)?
Answer: 42.9 µM (active)

Question: What about the EC50 [13] of the same compound?
Answer: 1.21 µM (active)

Question: What about the EC50 [14] of the same compound?
Answer: 1.34 µM (active)

Question: What about the IC50 (Estrogen receptor beta [15]) of the same compound?
Answer: 8.15 µM (active)

Question: What about the IC50 (Estrogen receptor beta [16]) of the same compound?
Answer: > 109 µM (not active)

Question: And the IC50 [17]?
Answer: 4.75 µM (not active)

Question: What about the IC50 [18] of the same compound?
Answer: 1.9 µM (active)

Question: What about the IC50 (Large T antigen) of the same compound?
Answer: 35.7 µM (active)

Question: And the IC50 [19]?
Answer: > 10 µM (inactive)

Question: What about the IC50 [20] of the same compound?
Answer: 0.001 µM (active)

Question: What about the IC50 [21] of the same compound?
Answer: 0.001 µM (active)

Question: And the IC50 [22]?
Answer: 0.001 µM (active)

Question: What about the IC50 [23] of the same compound?
Answer: 0.00867 µM (active)

Question: And the IC50 [24]?
Answer: > 20 µM (inactive)

Question: And the IC50 [25]?
Answer: 0.015 µM (active)

Question: And the IC50 [26]?
Answer: > 10 µM (inactive)

Question: And the IC50 [27]?
Answer: 0.996 µM (active)

Question: What about the IC50 [28] of the same compound?
Answer: 0.001 µM (active)

Question: And the IC50 [29]?
Answer: 0.001 µM (active)

Question: And the IC50 [30]?
Answer: 19.4 µM (inactive)

Source: ChEMBL document CHEMBL1201862, “PubChem BioAssay data set” (2004)
